In patent publication US9713591B2, “Composition of matter comprising liposomes embedded in a polymeric matrix and methods of using same” (Yissum Research Development Company of the Hebrew …, priority 2008, dated 2017):
Where “and” joins values, the source holds several entries; their conditions need not be identical. Equal entries are not always repeated. Structures can show the parent of a compound that is named as a salt. Values belong to the molecule of their own block, whether it stands above or below them.

Key:
male Swiss-Webster mice [1] = experiment: Analgesic efficacy in mouse model: electrical stimulation of abdominal skin, vocalization threshold, analgesia score and duration; type: in vivo; set-up: key to analgesia score, 15 min / analgesia score, 30 min / analgesia score, 45 min / analgesia score, 60 min / analgesia score, 75 min / analgesia score, 90 min / analgesia score, 105 min / analgesia score, 120 min / analgesia score, 135 min: 1 = analgesia; 0 = no analgesia; 10 = partial analgesia; key to analgesia score 150′ / analgesia score 5′ / analgesia score 30′ / analgesia score 60′ / analgesia score 75′ / analgesia score 90′ / analgesia score 105′ / analgesia score 120′ / analgesia score 135′: If the anesthesia was complete the numeric value given was 1.0; when analgesia was partial (incomplete) it received the numeric value of 10.0 in the Table 1 and in other Tables a score of 0.5; for no anesthesia the numeric score was 0
Excerpt: Analgesic efficacy in male Swiss Webster mouse model: Testing for analgesia was done by electrical stimulation of mice skin as described elsewhere (G. J. Grant et al, Pharmaceutical Research, 18, no 3, 336-343, 2001). Pain as electrical stimulation at the desired intensity was inflicted to the skin of shaved mice abdomen. The current generator (model S48, Grass Instruments (W. Warwick, R.I. USA) was used. Mice (male Swiss-Webster, 26±3 gr (n=7 per group) were used. The mice were shaved the hair overlying the abdomen and tested prior to injection to determine the Individual vocalization threshold of each mice. Than the mice were injected with (0.3-0.4 ml of one of the following: free bupivacaine, or LMVV-BUP or various LMVV entrapped in Ca-alginate or chitosan-oxalate cross linked hydrogels through 30G needle. The analgesia duration was than followed as specified in the experiment itself. All experiments were approved and ratified by the HUJI ethic committee.
Analysis of the in vivo mice analgesia: A numerical score to the spreadsheet was introduced for the evaluation of the analgesic effect of various liposome preparations performance in vivo: For each time period (e.g. 4 hrs, 8 hrs etc) a numeric value to each mouse in the experiment was given. If the anesthesia was complete the numeric value given was 1.0; when analgesia was partial (incomplete) it received the numeric value of 10.0 in the Table 1 and in other Tables a score of 0.5 and for no anesthesia the numeric score was 0. The mean for each subgroup was calculated separately (i.e. 1% 300 μl, 2%[…]).
Testing for analgesia was done by electrical stimulation of the skin directly overlying the abdomen at the site of injection using a current generator (model S48, Grass Instruments) as described in Grant et al 2001. (G. J. Grant et al, pharmaceutical research, vol 18, no 3, 336-343, 2001), and in Methods above.
Mice (male Swiss-Webster 26±3 gr) were tested prior to injection to determine the vocalization threshold than were injected with liposomal BUP or free BUP than followed by determination of analgesia duration (The duration of the main in vivo screening study was 2 days and started after a preliminary study using two different injection volumes of formulation #4 (referred to as the PILOT in Table 9A) was performed. […]
Testing for analgesia was performed by electrical stimulation of mice skin as described elsewhere (G. J. Grant et al, Pharmaceutical Research, 18, no 3, 336-343, 2001). Pain by electrical stimulation at the desired intensity was applied to the skin of shaved mice abdomen. The current generator (model S48, Grass Instruments (W. Warwick, R.I. USA) was used. Mice (male Swiss-Webster, 26±3 gr (n=8 per group) were used. The mice were shaved the hair overlying the abdomen and tested prior to injection to determine the Individual vocalization threshold of each mice. Than the mice were injected through 30G needle with 0.25 ml of one of the following formulation: • 1—Alginate beads containing LMVV-BUP (010609), were stored at 4 c for 2 months in 0.5% bup, PH=5.5 (see B3). The external solution of the beads were removed before injection without washing them. • 2—Alginate beads containing LMVV-BUP (010609), were stored at 4 c for 2 months in 2% bup, PH=5.5 (see B3). The external solution of the beads were removed and the beads washed (2.5 ml saline×5) before injection. • 3—Alginate beads containing LMVV-BUP (010609), were stored at 4 c for 2 months in 1% bup, PH=5.5 (see B3). The external solution of the beads were removed before injection without washing them. • 4—Alginate beads containing LMVV-BUP (010609), were stored at 4 c for 2 months in saline, PH=5.5 (see B3). The external solution of the beads were removed before injection without washing them. • 5—LMVV-BUP (010609) were stored at 4 c for 2 months in saline PH=5.5. • 6—BLANK: Aginate beads containing LMVV without bup, were stored at 4 c for 2 months in saline PH=5.5. […]

male Swiss-Webster mice [2] = details: previously determined (Grant et al. 2004, U.S. Pat. No. 6,162,462); cited from earlier work
[3] = cited from earlier work
[4] = Free (non liposomal) and total bupivacaine determination by HPLC (% free BUP in the preparation); type: physicochemical; details: Example 2 samples
Experimental: Bupivacaine determination: free (non liposomal) or total (liposomal plus free) concentration of bupivacaine was measured by HPLC (Grant et al Parm. Res., 2001 18, N3, 336-343; Anesthesiology, 2004, 101, 133-137).
Drug/lipid ratio determination for hydrogel beads: The washed beads were injected through a 25G×⅝″ (0.5 mm×16 mm) syringe needle to have homogenous dispersion and were diluted ×10 with saline: • 50 μl and 100 μl used for PL. determination. • 100 μl centrifuged 10′ 2000 g at 4° C. and the supernatant diluted ×10 with isopropanol (IPA) to determine free bupivacaine. • 100 or 200 μl heated in boiling water, than centrifuged 10′ at 2000 g. The supernatant was diluted ×10 with IPA to determine total bupivacaine by HPLC.
All samples for bupivacaine determination were centrifuged for 2 min. at 5000 g (using Eppendof centrifuge) after dilution in IPA. The upper phase was removed and analyzed by HPLC.
All liposomal formulations were analyzed for free non liposomal BUP and total BUP before the in vivo experiment followed by their concentration to reach the level of 2% (w/w) BUP (for liposome formulations #1, 2, 3, 5, 6, 8) and to 1% (w/w BUP for liposome formulations #4 & 7). BUP was loaded into the liposomes either by active loading (CA or AS gradient) or by passive loading as described in Table 8.
Free Bup (Non Liposomal Bup) Determination: […]

[5] = Bup Conc 0.25%, Volume 150 ul, 0.375 mg Bup, individual mice
[6] = Bup Conc 0.25%, Volume 150 ul, 0.375 mg Bup, individual mice, hydrochloride
[7] = Bup Conc 0.25%, Volume 300 ul, 0.75 mg Bup, individual mice
[8] = Bup Conc 0.25%, Volume 300 ul, 0.75 mg Bup, individual mice, hydrochloride
[9] = Bup Conc 0.50%, Volume 150 ul, 0.75 mg Bup, individual mice
[10] = Bup Conc 0.50%, Volume 150 ul, 0.75 mg Bup, individual mice, hydrochloride

SMILES: CCCCN1CCCCC1C(=O)Nc1c(C)cccc1C (stereo not shown) [Standard Bupivacaine, Bupivacaine hydrochloride]
analgesia score, 15 min (male Swiss-Webster mice [1]; [5]): 1
analgesia score, 30 min (male Swiss-Webster mice [1]; [5]): 1
analgesia score, 45 min (male Swiss-Webster mice [1]; [5]): 1
analgesia score, 90 min (male Swiss-Webster mice [1]; [5]): 0
analgesia score, 60 min (male Swiss-Webster mice [1]; [6]): 0 (5×) and 1 (2×) and 10
analgesia score, 75 min (male Swiss-Webster mice [1]; [6]): 0 (7×) and 10
analgesia score, 15 min (male Swiss-Webster mice [1]; [7]): 1
analgesia score, 30 min (male Swiss-Webster mice [1]; [7]): 1
analgesia score, 45 min (male Swiss-Webster mice [1]; [7]): 1
analgesia score, 60 min (male Swiss-Webster mice [1]; [7]): 1
analgesia score, 135 min (male Swiss-Webster mice [1]; [7]): 0
analgesia score, 75 min (male Swiss-Webster mice [1]; [8]): 0 and 1 (7×)
analgesia score, 90 min (male Swiss-Webster mice [1]; [8]): 0 and 1 (5×) and 10 (2×)
analgesia score, 105 min (male Swiss-Webster mice [1]; [8]): 0 (5×) and 10 and 1 (2×)
analgesia score, 120 min (male Swiss-Webster mice [1]; [8]): 0 (7×) and 10
analgesia score, 15 min (male Swiss-Webster mice [1]; [9]): 1
analgesia score, 30 min (male Swiss-Webster mice [1]; [9]): 1
analgesia score, 45 min (male Swiss-Webster mice [1]; [9]): 1
analgesia score, 105 min (male Swiss-Webster mice [1]; [9]): 0
analgesia score, 60 min (male Swiss-Webster mice [1]; [10]): 1 (7×) and 10
analgesia score, 75 min (male Swiss-Webster mice [1]; [10]): 1 (6×) and 0 and 10
analgesia score, 90 min (male Swiss-Webster mice [1]; [10]): 0 (4×) and 10 (2×) and 1 (2×)
analgesia score, 15 min (male Swiss-Webster mice [1]; per mouse, free BUP 0.25%, 150 ul, 0.375 mg Bup, 15 min): 1
analgesia score, 30 min (male Swiss-Webster mice [1]; per mouse, free BUP 0.25%, 150 ul, 0.375 mg Bup, 30 min): 1
analgesia score, 45 min (male Swiss-Webster mice [1]; per mouse, free BUP 0.25%, 150 ul, 0.375 mg Bup, 45 min): 1
analgesia score, 60 min (male Swiss-Webster mice [1]; per mouse, free BUP 0.25%, 150 ul, 0.375 mg Bup, 60 min, hydrochloride): 0 (5×) and 1 (2×) and 10
analgesia score, 75 min (male Swiss-Webster mice [1]; per mouse, free BUP 0.25%, 150 ul, 0.375 mg Bup, 75 min, hydrochloride): 0 (7×) and 10
analgesia score, 90 min (male Swiss-Webster mice [1]; per mouse, free BUP 0.25%, 150 ul, 0.375 mg Bup, 90 min): 0
analgesia score, 15 min (male Swiss-Webster mice [1]; per mouse, free BUP 0.25%, 300 ul, 0.75 mg Bup, 15 min): 1
analgesia score, 30 min (male Swiss-Webster mice [1]; per mouse, free BUP 0.25%, 300 ul, 0.75 mg Bup, 30 min): 1
analgesia score, 45 min (male Swiss-Webster mice [1]; per mouse, free BUP 0.25%, 300 ul, 0.75 mg Bup, 45 min): 1
analgesia score, 60 min (male Swiss-Webster mice [1]; per mouse, free BUP 0.25%, 300 ul, 0.75 mg Bup, 60 min): 1
analgesia score, 75 min (male Swiss-Webster mice [1]; per mouse, free BUP 0.25%, 300 ul, 0.75 mg Bup, 75 min, hydrochloride): 0 and 1 (7×)
analgesia score, 90 min (male Swiss-Webster mice [1]; per mouse, free BUP 0.25%, 300 ul, 0.75 mg Bup, 90 min, hydrochloride): 0 and 1 (5×) and 10 (2×)
analgesia score, 105 min (male Swiss-Webster mice [1]; per mouse, free BUP 0.25%, 300 ul, 0.75 mg Bup, 105 min, hydrochloride): 0 (5×) and 10 and 1 (2×)
analgesia score, 120 min (male Swiss-Webster mice [1]; per mouse, free BUP 0.25%, 300 ul, 0.75 mg Bup, 120 min, hydrochloride): 0 (7×) and 10
analgesia score, 135 min (male Swiss-Webster mice [1]; per mouse, free BUP 0.25%, 300 ul, 0.75 mg Bup, 135 min): 0
analgesia score, 15 min (male Swiss-Webster mice [1]; per mouse, free BUP 0.50%, 150 ul, 0.75 mg Bup, 15 min): 1
analgesia score, 30 min (male Swiss-Webster mice [1]; per mouse, free BUP 0.50%, 150 ul, 0.75 mg Bup, 30 min): 1
analgesia score, 45 min (male Swiss-Webster mice [1]; per mouse, free BUP 0.50%, 150 ul, 0.75 mg Bup, 45 min): 1
analgesia score, 60 min (male Swiss-Webster mice [1]; per mouse, free BUP 0.50%, 150 ul, 0.75 mg Bup, 60 min, hydrochloride): 1 (7×) and 10
analgesia score, 75 min (male Swiss-Webster mice [1]; per mouse, free BUP 0.50%, 150 ul, 0.75 mg Bup, 75 min, hydrochloride): 1 (6×) and 0 and 10
analgesia score, 90 min (male Swiss-Webster mice [1]; per mouse, free BUP 0.50%, 150 ul, 0.75 mg Bup, 90 min, hydrochloride): 0 (4×) and 10 (2×) and 1 (2×)
analgesia score, 105 min (male Swiss-Webster mice [1]; per mouse, free BUP 0.50%, 150 ul, 0.75 mg Bup, 105 min): 0
duration of analgesic effect post injection (male Swiss-Webster mice [2]): approximately 75 minutes
solubility limit of bupivacaine at pH 5.5 ([3]; 25° C., pH 5.5): below 2.9%
solubility of bupivacaine 25° C. at pH 2.0 ([3]; pH 2.0): 7.5%
mass solubility of bupivacaine at 25° C. in pH 5 ([3]; pH 5): 2.9%
mass solubility of bupivacaine at 25° C. in pH 6 ([3]; pH 6): 0.55%

Free bup concentration(%) after injection through G31 syringe needle ([4]; analyzed after the experiment was finished): 0.25%
Free bup concentration(%) after injection through G31 syringe needle ([4]; analyzed before starting the experiment): 0.25%
SMILES: CCCCN1CCCCC1C(=O)Nc1c(C)cccc1C (stereo not shown) [compound 9]
analgesia duration, comparison of Example 2 formulations (male Swiss-Webster mice [1]; Example 2, mice): shortest analgesia duration
analgesia score 5′ (male Swiss-Webster mice [1]; Example 2 group 9, per mouse, 0.25% bup 300 ul, 5 min): 1
analgesia score 30′ (male Swiss-Webster mice [1]; Example 2 group 9, per mouse, 0.25% bup 300 ul, 30 min): 1
analgesia score 60′ (male Swiss-Webster mice [1]; Example 2 group 9, per mouse, 0.25% bup 300 ul, 60 min): 1
analgesia score 75′ (male Swiss-Webster mice [1]; Example 2 group 9, per mouse, 0.25% bup 300 ul, 75 min, listed as standard free bupivacaine): 1 (3×) and 0 (2×)
analgesia score 90′ (male Swiss-Webster mice [1]; Example 2 group 9, per mouse, 0.25% bup 300 ul, 90 min, listed as standard free bupivacaine): 1 (3×) and 0 (2×)
analgesia score 105′ (male Swiss-Webster mice [1]; Example 2 group 9, per mouse, 0.25% bup 300 ul, 105 min, listed as standard free bupivacaine): 1 and 0 (2×)
analgesia score 120′ (male Swiss-Webster mice [1]; Example 2 group 9, per mouse, 0.25% bup 300 ul, 120 min, listed as standard free bupivacaine): 0.5 and 0 (2×)
analgesia score 135′ (male Swiss-Webster mice [1]; Example 2 group 9, per mouse, 0.25% bup 300 ul, 135 min): 0
analgesia score 150′ (male Swiss-Webster mice [1]; Example 2 group 9, per mouse, 0.25% bup 300 ul, 150 min): 0
